Reference: PMC9176691, “Design, synthesis and biological evaluation of novel diosgenin–benzoic acid mustard hybrids with potential anti-proliferative activities in human hepatoma HepG2 cells” (Journal of Enzyme Inhibition and Medicinal Chemistry, 2022)

How the values were obtained:
HepG2 cells [1] = experiment: MTT anti-proliferative assay, HepG2; format: cell-based, human
MCF-7 cells = experiment: MTT anti-proliferative assay, MCF-7; format: cell-based, human
HeLa cells = experiment: MTT anti-proliferative assay, HeLa; format: cell-based; settings: Homo sapiens, 48 h, read-out: IC50 HeLa
GES-1 cells = experiment: MTT cytotoxicity assay, normal GES-1; format: cell-based, human
HepG2 cells [2] = experiment: Flow cytometric analysis of cell cycle distribution (PI); format: cell-based, human; settings: 24 h
Experimental: HepG2 cells were seeded into 6-well plates and allowed to grow for a period of 12 h. After incubation with different concentrations of 14f (0, 5, 10, and 20 µM) for 24 h, the cells were trypsinized, washed with phosphate-buffered saline (PBS), and fixed in 1.5 ml of 75% ethanol for the night, at 4 °C, following which RNase and propidium iodide (PI) (Multi Sciences Biotech Co. Ltd.) were added to the cells. The cell cycle distribution and data processing were analysed using a flow cytometer (FACSCalibur™, BD Biosciences, USA).

HepG2 cells [3] = experiment: Apoptosis by flow cytometry (Annexin V-FITC/PI); format: cell-based, human; settings: 48 h
Experimental: Briefly, HepG2 cells were incubated in 6-well plates for 24 h, and then treated with 14f (0, 5, 10, and 20 µM) for 48 h. Following that, the cells were washed once with pre-cold PBS, re-suspended in 300 µL of buffer solution, and stained with 10 µL of Annexin V-FITC and 5 µL of PI staining solution, under the conditions of 37 °C and absence of any light source, for 10 min. Finally, the samples were immediately measured using a flow cytometer. The percentages of apoptotic cells were determined on the CellQuest™ software (BD Biosciences).

HepG2 cells [4] = experiment: Mitochondrial membrane potential (JC-1, flow cytometry); format: cell-based, human; settings: 48 h (lower quadrant value)
Experimental: HepG2 cells were plated into 6-well plates for 12 h. Following treatment with varying concentrations of 14f for 48 h, the cells were incubated with JC-1 dyeing working solution for 0.5 h at room temperature, then washed with staining buffer 3 times and re-suspended in 300 µL of staining buffer. The cells were finally assessed and analysed using a flow cytometer (FACSCalibur™).

[5] = system: CDK2, CDK4, CDK6, cyclin D1 and cyclin E1; format: cell-based, human
[6] = system: CDK2, CDK4, CDK6, cyclin D1, and cyclin E1; experiment: Western blot of G0/G1 phase-related proteins; format: cell-based, human; settings: HepG2 cells, 48 h
Experimental: (§1) To analyse the effect of compound 14f on protein levels, western blot assay was employed, as elaborated previously. The proteins were acquired by collecting HepG2 cells treated with varying concentrations of 14f for 48 h and adding them to lysis buffer, in an ice bath for 30 min. After quantitation of protein concentration using BCA assay, equal amounts of total protein were separated using 10% sodium dodecyl sulphate-polyacrylamide gel electrophoresis and then transferred onto polyvinylidene fluoride membranes. The membranes were incubated with 5% bovine serum albumin solution for 1.5 h at 37 °C, followed by incubation with primary antibody overnight, and finally secondary antibody for 2 h at 37 °C. The blots were detected using enhanced chemiluminescence reagent with a fully automatic gel imaging system (ChemiDoc™ MP, Bio-Rad). The relative expression was calculated by normalising the expression of the control group to 1 for comparison.

[7] = system: Bax, Bcl-2, caspase 9, and caspase 3; format: cell-based, human
caspase 9 = experiment: Caspase 9 activity in cell lysates; format: cell-based, human; settings: HepG2 cell lysates, 48 h
Experimental: (§2) The activities of caspase 9 and caspase 3 in the cell lysates were evaluated as described previously. The harvested HepG2 cells treated with varying concentrations of 14f for 48 h were lysed using chilled 100 µL lysis buffer, to extract the total protein. The protein concentration was assessed using a Bradford Kit. The protein samples were incubated with assay buffer and colorimetric substrate (Ac-DEVD-pNA or Ac-LEHD-pNA) at room temperature for 2 h, according to the manufacturer’s protocol. The released pNAs were measured at the wavelength of 405 nm using a Multiskan® Spectrum system. The experiments were performed in triplicate.

caspase 3 = experiment: Caspase 3 activity in cell lysates; format: cell-based, human; settings: HepG2 cell lysates, 48 h
Experimental: as §2

Bax and Bcl-2 = experiment: Western blot of Bax and Bcl-2; format: cell-based, human; settings: HepG2 cells, 48 h
Experimental: as §1

HepG2 cells [8] = experiment: Hoechst 33342/PI staining, cell morphology; format: cell-based, human; settings: HepG2, 5, 10 and 20 μM, 48 h
Experimental: First, HepG2 cells were plated into 6-well plates, at a density of 1 × 10^6 cells/well. Thereafter, 14f (0, 5, 10, and 20 µM) was added to the cells and they were incubated with it for 48 h; 0.1% DMSO was used as a vehicle control. The cellular morphology was then observed and photographed using a light microscope (Olympus, 1 × 51, Japan). Next, HepG2 cells were incubated with 14f (0, 5, 10, and 20 µM) for 48 h, after which the cells were collected and stained with a mixture of Hoechst 33342 and PI in buffer solution, for 20 min at room temperature. Finally, the cell samples were studied and photographed under a fluorescence microscope (Obeserve.A1, Zeiss, Germany).

CC(=O)OC1CCC2(C)C(=CCC3C2CCC2(C)C3CC3OC(CCC(C)C(=O)N4CCCN(C(=O)c5ccc(N(CCCl)CCCl)cc5)CC4)C(C)C32)C1 [Compound 14f, (22 R,25R)-(4–(1-homopiperazinyl)-4-(bis(2-chloroethyl)amino)benzamido)-3β-acetoxy-5-en-furostan-26-amide]
potency fold higher than that of Mitomycin C (HepG2 cells [1]): 14.4 fold | IC50 (HepG2 cells [1]; Homo sapiens, HepG2, 48 h, read-out: IC50 HepG2): 2.26 ± 0.87 µM | fold more active than DSG (MCF-7 cells): about 1.7 fold | IC50 (MCF-7 cells; Homo sapiens, MCF7, 48 h, read-out: IC50 MCF-7): 11.1 ± 1.01 µM | IC50 (HeLa cells): 41.6 ± 3.12 µM | SI (GES-1 cells): >44.25 | IC50 (GES-1 cells; Homo sapiens, GES1, 48 h, read-out: IC50 GES-1): > 100 µM | effect on the cell cycle (HepG2 cells [2]; HepG2, 5, 10 and 20 µM): arrested the cell cycle at the G0/G1 phase | cells in G0/G1 phase (HepG2 cells [2]; HepG2, 14f 5 μM): 33.76% | cells in G0/G1 phase (HepG2 cells [2]; HepG2, 14f 10 μM): 40.38% | cells in G0/G1 phase (HepG2 cells [2]; HepG2, 14f 20 μM): 46.40% | apoptotic cells (HepG2 cells [3]; HepG2, 14f 5 μM): 9.80% | apoptotic cells (HepG2 cells [3]; HepG2, 14f 10 μM): 14.38% | apoptotic cells (HepG2 cells [3]; HepG2, 14f 20 μM): 28.13% | percentage of mitochondrial depolarisation (HepG2 cells [4]; HepG2, JC-1, 14f 5 µM): 7.90% | percentage of mitochondrial depolarisation (HepG2 cells [4]; HepG2, JC-1, 14f 10 µM): 15.55% | percentage of mitochondrial depolarisation (HepG2 cells [4]; HepG2, JC-1, 14f 20 µM): 40.46% | genes levels of CDK2, CDK4, CDK6, cyclin D1 and cyclin E1 [5]: decreased | expression levels of CDK2, CDK4, CDK6, cyclin D1, and cyclin E1 proteins [6]: concentration-dependently downregulate | gene expression of Bax, caspase 9, and caspase 3 [7]: high gene expression | gene expression of Bcl-2 [7]: suppressed | enzyme activity of caspase 9 (caspase 9): upregulated | enzyme activity of caspase 3 (caspase 3): upregulated | protein levels of Bax (Bax and Bcl-2): upregulated | protein levels of Bcl-2 (Bax and Bcl-2): downregulation | apoptosis seen by Hoechst 33342/PI staining (HepG2 cells [8]): increase in the apoptosis of HepG2 cells
